Each structure is given as a SMILES string. A value given as a limit tells only on which side of the number the result lay.

The term Papp denotes the rate of passage across a membrane or cell layer, normalised by area and donor concentration. By IC50 is commonly meant the concentration that gives 50% inhibition. A lower IC50 goes with greater potency.

Data set [1] deals with NF-κB pathway-related proteins. As to the kind of experiment: Western blot of NF-κB pathway-related proteins, U87 cells. In kind it is cell-based, human. The conditions noted are these: 20 and 50 μM, 48 h. The protocol:
(§1) Briefly, after treatment with indicated concentrations of test compound (20, 50 μM) for 48 h, the cells were collected, and total cell lysates and nucleus fractions were extracted. Twenty micrograms of cellular protein were subjected to electrophoresis on 12% SDS-polyacrylamide gels and then transferred to polyvinylidene difluoride membranes. The membranes were first incubated with 5% BSA for 2 h at 37°C and then incubated with the first antibodies overnight at 4°C. After HRP-labeled secondary antibodies (1:1,000-dilution) incubation, protein bands were visualized with the enhanced chemiluminescence (ECL) detection solution. The intensity of bands was quantified using ImageJ 1.43 software (National Institutes of Health, Bethesda, MD, USA).
For orientation: In western blotting, separated proteins are transferred to a membrane and probed.

A further data set deals with U87 cells. As to the kind of experiment: Apoptosis by Annexin V-FITC/PI staining, U87 cells. The conditions noted are these: 48 h, mean ± SD. In kind it is cell-based, human. The procedure: The effects of test compound on apoptosis were detected by Annexin V-FITC/PI staining. Briefly, after treatment with indicated concentrations of test compounds (20, 50 μM) for 48 h, the cells were collected and resuspended in 500-μl detection buffer. Then 5μl PI and 5μl Annexin V-FITC were added to the detection buffer. Then, cells were incubated for 15 min in the dark and analyzed using Flow cytometer (Becton Dickinson) and WinMDI 2.8 software (Scripps Institute, La Jolla, CA, USA).

The subject of data set [2] is NF-κB pathway-related proteins. In words: Western blot of NF-κB pathway-related proteins, C6 cells. Particulars: 20 and 50 μM, 48 h. In kind it is cell-based, rat. The protocol: as §1
The nature of data set [3]: Transport experiment in the in vitro BBB cell model. In kind it is in vitro ADME. The conditions noted are these: Sprague-Dawley, rat, C0 20 μM, apical to basolateral, mean ± SD (n = 3-4), read-out: Papp × 10^−6. The protocol: (§2) Rat brain microvascular endothelial cells (BMECs) were separated from the cerebral cortex of 18-day-old male Sprague-Dawley rats as described previously ([Biegel et al., 1995]). Briefly, the cerebral cortical tissues were dissected from meninges after the rats were sacrificed, then the tissues were homogenated in physiological buffer solution (pH 7.4). After centrifugation, the pellets were collected, and the microvascular segments were then digested with 0.1% collagenase II at 37°C for 1 h. […] The second passage was used for co-culture of BBB cellular models.
Astrocytes were separated from the cerebral cortex of newborn Sprague-Dawley rats (1–2 days) as described previously ([Jeliazkova-Mecheva and Bobilya, 2003]). The brain tissues (removal of the meninges and blood vessel) were minced and mechanical homogenized and then digested with 0.25% trypsin-EDTA at 37°C for 10 min.
The in vitro BBB cell model was constructed in the Transwell 24well plate ([…], Millipore, USA). Before the experiment, the transwell filters were coated with matrigel matrix. The isolated rat astroglias were seeded onto one side of polycarbonate inserts (5 × 10^4 cells/insert). After 3 to 5 days, the rat BMECs were seeded at a density of 1.5 × 10^5 cells/insert onto the opposite side of the inserts to produce rat BMEC monolayers. The in vitro BBB cell model was formed 3 to 4 days. Trans-epithelial electrical resistance (TEER) measurements were performed everyday after the co-cultures formed until the TEER value increased to […] ([Yang et al., 2014]) ( Figure 2C ).
The transport experiments were performed by adding 400 μl HBSS containing the compounds to the apical side (AP), with 600μl HBSS to the basolateral side (BL) at the same time. Samples (60 μl) were collected from the BL chamber at the time points of 15, 30, 60, 90, 120, and 180 min, and the corresponding volume of HBSS buffer was immediately added into the BL chamber. The samples were precipitated by methanol, and the concentrations of the compounds in the samples were determined by high-performance liquid chromatography (HPLC). The HPLC conditions were as follows: Agilent TC-C18 column (250 × 4.6 mm; 5 μm), methanol 1% ethanoic acid mobile phase (from 10:90 to 90:10, v/v), with gradient elution at a flow rate of 1.0 ml/min. The detection wavelength was 275 nm for these compounds. The run time was 20 min. The apparent permeability coefficients (P app) were calculated from the following formula: P app = (∆Q/∆t)/(A × C 0), where ∆Q/∆t is the linear appearance rate of the compound on the BL side (μmol/s), A is the surface area of the cell monolayer (cm^2), and C 0 is the initial concentration of the drug on the AP side (μmol/L).

The test system of the next data set is human glioma U87 cells. As to the kind of experiment: Anti-glioma MTT assay, U87 cells. The conditions noted are these: for IC50: Homo sapiens, U-87 MG, U87 cells. In kind it is cell-based. The procedure:
(§3) The anti-glioma effects of these compounds were evaluated by MTT assay in rat C6 glioma cells, human glioma U87 and U251 cells, and BMECs cells. Brieﬂy, cells were seeded at the density of 4,000 cells/well in 96-well plates overnight. For the first screening, the cells were incubated with 10, 20, 100 μM compounds for 48 h. Then cell viabilities were detected by MTT assay as described above. For the second screening, the cells were incubated with 6.25-, 12.5-, 25-, 50-, and 100μM compounds for 48 and 96 h, and then detected by MTT assay. The OD of each well was measured at 490 nm on an ELISA microplate reader. The inhibitory rates and IC50 values were calculated.
(Tetrazolium assays rely on reduction of a dye to a coloured formazan, in cell work by metabolically active cells.)

A further data set relates to ROS levels in U87 cells. In words: Intracellular ROS levels (DCF, flow cytometry), U87 cells. In kind it is cell-based, human. The conditions noted are these: 20 and 50 μM, 48 h, P < 0.05. The procedure:
Intracellular reactive oxygen species (ROS) levels were detected using Reactive Oxygen Species Assay Kit (Jiancheng Bioengineering, Nanjing, China) as per the manufacturer’s instruction. Brieﬂy, after treatment with indicated concentrations of test compound (20, 50 μM) for 48 h, the cells were incubated in 1 ml 2,7-dichloroﬂuorescin diacetate working solution (100 μM) for 30 min at 37°C in the dark, and washed with PBS. Then ﬂuorescence intensities of intracellular DCF were detected using a FACS Calibur ﬂow cytometer (Becton-Dickinson, San Jose, CA, USA). H2O2 treatment group was used as the positive control group.

In a further data set the test system is rat BMECs. In words: Cytotoxicity of apocynin derivatives on rat BMECs (MTT, 24 h). In kind it is cell-based. The conditions noted are these: 100 μM, vs control, P < 0.05. The protocol:
as §2
Rat BMECs were collected and seeded into 96-well culture plates at a density of 7.5 × 10^3 cells/well overnight. The cells were treated with different concentrations of the compounds (10, 20, and 100 μM) for 24 h, respectively. Then, 20-μl MTT (5 mg/ml) in fresh medium was added to each well and incubated for another 4 h. Finally, 150μl dimethyl sulfoxide (DMSO) was added to dissolve formazan crystals, and the absorbance was detected at 490 nm in a multiwall-plate reader (BioTek ELx800).

In another data set the test system is BMECs. As to the kind of experiment: MTT assay on normal BMECs (48 and 96 h). In kind it is cell-based. The conditions noted are these: Rattus norvegicus. The procedure:
as §2, §3

For the molecule `COc1cc(C(=O)CSCc2ccccc2Cl)ccc1O` [Compound D31, 2-((2-Chlorobenzyl)thio)-1-(4-Hydroxy-3-Methoxyphenyl)Ethan-1-One], the IκBα expression result in data set [1] and in data set [2] was “obviously decreased” each time. Moreover, the “nucleus p-NF-κB p65 expression” value in data set [1] and in data set [2] was “obviously increased” in each case. For the same molecule, the p-IKKα/β expression result in data set [1] and in data set [2] was “obviously increased” throughout. Further, the Apoptotic cell rate with U87 cells (20 μM) came out at 16.7 ± 3.1%; with U87 cells (50 μM) it was 29.7 ± 4.7%. In addition, the Papp at 90 min, 20 μM in data set [3] was determined as 120 ± 9.4 nm/s. Also, the “Anti-proliferation effect on U87 cells (first screening)” value with human glioma U87 cells (10, 20, 100 μM, 48 h, compared with D1, P < 0.05) is reported as “significant anti-proliferation effects”. Besides, the IC50 with human glioma U87 cells (48 h) was 23.5 µM; with human glioma U87 cells (96 h), 21.5 µM; with BMECs (48 h), more than 100 µM; in the data set with BMECs (96 h) it was more than 100 µM. Moreover, the “Fluorescence intensity of DCF (ROS generation) vs control” value in the data set with ROS levels in U87 cells was “significant increases”. For the same molecule, the “Effect on cell viability of rat BMECs” value in the data set on rat BMECs is “significantly inhibit the cell viability”.

The record behind these values is article PMC6733959, “Synthesis and Evaluations of Novel Apocynin Derivatives as Anti-Glioma Agents” (Frontiers in Pharmacology, 2019).
